Experimental data published in PubChem BioAssay (NCI).
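GI50 = concentration required for 50% inhibition of growth. The concentration for full growth arrest is given as TGI.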

Experiments:
Assay in all cases: inhibition of tumour cell growth, NCI panel, 384-well format
786-0 renal = system: 786-0 renal
A498 renal = system: A498 renal
A549 NSCLC = system: A549 NSCLC
ACHN renal = system: ACHN renal
BT-549 breast = system: BT-549 breast
CAKI-1 renal = system: CAKI-1 renal
CCRF-CEM leukemia = system: CCRF-CEM leukemia
COLO 205 colon = system: COLO 205 colon
DU-145 prostate = system: DU-145 prostate
EKVX NSCLC = system: EKVX NSCLC
HCC-2998 colon = system: HCC-2998 colon
HCT-116 colon = system: HCT-116 colon
HCT-15 colon = system: HCT-15 colon
HL-60(TB) leukemia = system: HL-60(TB) leukemia
HOP-62 NSCLC = system: HOP-62 NSCLC
HOP-92 NSCLC = system: HOP-92 NSCLC
HS 578T breast = system: HS 578T breast
HT29 colon = system: HT29 colon
IGROV1 ovarian = system: IGROV1 ovarian
K-562 leukemia = system: K-562 leukemia
KM12 colon = system: KM12 colon
LOX IMVI melanoma = system: LOX IMVI melanoma
M14 melanoma = system: M14 melanoma
MALME-3M melanoma = system: MALME-3M melanoma
MCF7 breast = system: MCF7 breast
MDA-MB-231 breast = system: MDA-MB-231 breast
MDA-MB-435 melanoma = system: MDA-MB-435 melanoma
MDA-MB-468 breast = system: MDA-MB-468 breast
MOLT-4 leukemia = system: MOLT-4 leukemia
NCI-H226 lung = system: NCI-H226 lung

NC1(Cc2ccc(Cl)cc2)CCN(c2ncnc3[nH]ccc23)CC1
GI50 ([…]-0 renal): 2.33 µM | TGI (786-0 renal): 12.1 µM | GI50 (A498 renal): 3.16 µM | TGI (A498 renal): 14.8 µM | GI50 (A549 NSCLC): 4.27 µM | TGI (A549 NSCLC): 15.5 µM | GI50 (ACHN renal): 3.89 µM | TGI (ACHN renal): 15.8 µM | GI50 (BT-549 breast): 1.63 µM | TGI (BT-549 breast): 5.8 µM | GI50 (CAKI-1 renal): 3.96 µM | TGI (CAKI-1 renal): 16 µM | GI50 (CCRF-CEM leukemia): 2.31 µM | TGI (CCRF-CEM leukemia): 10.8 µM | GI50 (COLO 205 colon): 3.34 µM | TGI (COLO 205 colon): 12.3 µM | GI50 (DU-145 prostate): 8.33 µM | TGI (DU-145 prostate): 23 µM | GI50 (EKVX NSCLC): 4.51 µM | TGI (EKVX NSCLC): 16.5 µM | GI50 (HCC-2998 colon): 1.96 µM | TGI (HCC-2998 colon): 5.94 µM | GI50 (HCT-116 colon): 3.67 µM | TGI (HCT-116 colon): 13.4 µM | GI50 (HCT-15 colon): 3.93 µM | TGI (HCT-15 colon): 17.8 µM | GI50 (HL-60(TB) leukemia): 3.01 µM | TGI (HL-60(TB) leukemia): 9.25 µM | GI50 (HOP-62 NSCLC): 4.77 µM | TGI (HOP-62 NSCLC): 17.2 µM | GI50 (HOP-92 NSCLC): 2.2 µM | TGI (HOP-92 NSCLC): 9.62 µM | GI50 (HS 578T breast): 1.21 µM | TGI (HS 578T breast): 6.14 µM | GI50 (HT29 colon): 2.63 µM | TGI (HT29 colon): 12.3 µM | GI50 (IGROV1 ovarian): 1.53 µM | TGI (IGROV1 ovarian): 9.67 µM | GI50 (K-562 leukemia): 3.4 µM | TGI (K-562 leukemia): 15.7 µM | GI50 (KM12 colon): 2.25 µM | TGI (KM12 colon): 11 µM | GI50 (LOX IMVI melanoma): 4.07 µM | TGI (LOX IMVI melanoma): 13.7 µM | GI50 (M14 melanoma): 4.51 µM | TGI (M14 melanoma): 16.1 µM | GI50 (MALME-3M melanoma): 2.25 µM | TGI (MALME-3M melanoma): 5.8 µM | GI50 (MCF7 breast): 2.55 µM | TGI (MCF7 breast): 12.7 µM | GI50 (MDA-MB-231 breast): 4.76 µM | TGI (MDA-MB-231 breast): 16.4 µM | GI50 (MDA-MB-435 melanoma): 2.41 µM | TGI (MDA-MB-435 melanoma): 6.35 µM | GI50 (MDA-MB-468 breast): 1.61 µM | TGI (MDA-MB-468 breast): 6.55 µM | GI50 (MOLT-4 leukemia): 1.09 µM | TGI (MOLT-4 leukemia): 2.6 µM | GI50 (NCI-H226 lung): 5.53 µM
